Consider three compounds from patent US20200197480A1, “COMBINATION COMPRISING A PARTICULAR POLYMYXIN” (HELPERBY THERAPEUTICS LIMITED, priority 2017, published 2020).

In test [1] the test system is NDM-1 Klebsiella pneumoniae subsp. pneumoniae (BAA2472). Nature of the test: chequerboard analysis, log phase culture, 24 hours incubation, FICI calculated. Format: cell-based. As for the experimental part: • Bacterial strain used: BAA2472 strain of NDM-1 Klebsiella pneumoniae subsp. pneumoniae from ATCC®. • Growth of bacteria: Log phase growth of the bacteria was carried out according to methods known in the art. • Compounds and preparation: • (i) HT0160010 was obtained from a commercial source and dissolved in DMSO to make a stock concentration of 10 mg/ml. • (ii) Colistimethate sodium (CMS) was obtained from a commercial source (e.g. Sigma Aldrich) at a concentration of 10 mg/ml.
(§1) Log phase bacterial culture was incubated with HT0160010 and CMS in combination using the chequerboard method known in the art. The overnight culture was diluted with nutrient broth (Oxoid) to 10^7 CFU/ml and 280 μl of the culture was added to each well to make a final concentration of 300 μl. Incubation of the compounds with the bacterial suspension was carried out for 24 hours. The HT0160010 concentration ranged from 128 to 0 μg/ml and the CMS concentration ranged from 16 to 0 μg/ml.
(§2) The effects of the combination were examined by calculating the fractional inhibitory concentration index (FICI) of each combination, as follows: (MIC of drug A, tested in combination)/(MIC of drug A, tested alone)+(MIC of drug B, tested in combination)/(MIC of drug B, tested alone). The interaction of the combination was defined as showing synergy if the FICI was ≤0.5, no interaction if the FICI was ≥0.5 but ≤4.0 and antagonism if the FICI was ≥4.0.
• Bacterial strain used: BAA2472 strain of NDM-1 Klebsiella pneumoniae subsp. pneumoniae from ATCC®. • Growth of bacteria: Log phase growth of the bacteria was carried out according to methods known in the art.
• (i) HT0160009 was obtained from a commercial source and dissolved in DMSO to make a stock concentration of 10 mg/ml. • (ii) Colistimethate sodium (CMS) was obtained from a commercial source (e.g. Sigma Aldrich) at a concentration of 10 mg/ml.
(§3) Log phase bacterial culture was incubated with HT0160009 and CMS in combination using the chequerboard method known in the art. The overnight culture was diluted with nutrient broth (Oxoid) to 10^7 CFU/ml and 280 μl of the culture was added to each well to make a final concentration of 300 μl. Incubation of the compounds with the bacterial suspension was carried out for 24 hours. The HT0160010 concentration ranged from 256 to 0 μg/ml and the CMS concentration ranged from 16 to 0 μg/ml.
The effects of the combination were examined by calculating the FICI in the same manner as Example 1.

Test [2] has as its system NDM-1 Escherichia coli (BAA2469). Described as above. Format: cell-based. Details: key: FICI; ≤0.5 synergy, 0.5–4.0 no interaction, ≥4.0 antagonism. As for the experimental part: as §1, §2
• Bacterial strain used: BAA2469 strain of NDM-1 E. coli from ATCC®. • Growth of bacteria: Log phase growth of the bacteria was carried out according to methods known in the art.
Compounds and preparation were the same as Example 1. The effects of the combination were also examined by calculating the FICI in the same manner as Example 1.
as §3
Compounds and preparation were the same as Example 3. The effects of the combination were also examined by calculating the FICI in the same manner as Example 3.

Setting [3] is: CMS 0.015625 μg/ml, HT0160010 0.

With `O=C(c1cc(C(F)(F)F)nc2c(C(F)(F)F)cccc12)C1CCCCN1` (stereo not shown) [HT0160009], the chequerboard results is given as 0.50 in test [1] (HT0160009 4 μg/ml, CMS 0); 0.50 in test [1] (HT0160009 8 μg/ml, CMS 0); 0.49 in test [1] (HT0160009 16 μg/ml, CMS 0); 0.25 in test [1] (HT0160009 32 μg/ml, CMS 0); 0.17 in test [1] (HT0160009 64 μg/ml, CMS 0); 0.14 in test [1] (HT0160009 128 μg/ml, CMS 0). Further, the chequerboard results in test [1] (HT0160009 256 μg/ml, CMS 0) is reported as 0.05; in test [2] (HT0160009 4 μg/ml, CMS 0) it was 0.61; in test [2] (HT0160009 8 μg/ml, CMS 0), 0.54; in test [2] (HT0160009 16 μg/ml, CMS 0), 0.58; in test [2] (HT0160009 32 μg/ml, CMS 0), 0.32; in test [2] (HT0160009 64 μg/ml, CMS 0), 0.22. In addition, the chequerboard results in test [2] (HT0160009 128 μg/ml, CMS 0) is listed as 0.21; in test [2] (HT0160009 256 μg/ml, CMS 0) it was 0.05.
With `OC(c1ccccn1)c1cc(C(F)(F)F)nc2c(C(F)(F)F)cccc12` (stereo not shown) [HT0160010, (2,8-bis-trifluoromethyl-quinolin-4-yl)-pyridin-2-yl-methanol], the chequerboard results in test [1] (HT0160010 4 μg/ml, CMS 0) was 0.54; in test [1] (HT0160010 8 μg/ml, CMS 0), 0.57; in test [1] (HT0160010 16 μg/ml, CMS 0), 0.56; in test [1] (HT0160010 32 μg/ml, CMS 0), 0.56; in test [1] (HT0160010 64 μg/ml, CMS 0) it was 0.56; in test [1] (HT0160010 128 μg/ml, CMS 0) it was 0.57. Besides, the chequerboard results in test [2] (HT0160010 4 μg/ml, CMS 0) is on record as 0.62; in test [2] (HT0160010 8 μg/ml, CMS 0) it was 0.58; in test [2] (HT0160010 16 μg/ml, CMS 0), 0.61; in test [2] (HT0160010 32 μg/ml, CMS 0), 0.62; in test [2] (HT0160010 64 μg/ml, CMS 0), 0.64; in test [2] (HT0160010 128 μg/ml, CMS 0), 0.61.
On to Colistimethate sodium [CMS], for which the chequerboard results in test [1] (setting [3]) is 0.54; in test [1] (CMS 0.016 μg/ml, HT0160009 0) it was 0.52; in test [1] (CMS 0.031 μg/ml, HT0160009 0) it was 0.52; in test [1] (CMS 0.03125 μg/ml, HT0160010 0), 0.53; in test [1] (CMS 0.0625 μg/ml, HT0160010 0), 0.54; in test [1] (CMS 0.063 μg/ml, HT0160009 0) it was 0.53. For the same compound, the chequerboard results is given as 0.53 in test [1] (CMS 0.125 μg/ml, HT0160009 0); 0.52 in test [1] (CMS 0.125 μg/ml, HT0160010 0); 0.53 in test [1] (CMS 0.25 μg/ml, HT0160009 0); 0.51 in test [1] (CMS 0.25 μg/ml, HT0160010 0); 0.53 in test [1] (CMS 0.5 μg/ml, HT0160009 0); 0.52 in test [1] (CMS 0.5 μg/ml, HT0160010 0). Moreover, the chequerboard results in test [1] (CMS 1 μg/ml, HT0160009 0) is given as 0.50; in test [1] (CMS 1 μg/ml, HT0160010 0), 0.41; in test [1] (CMS 2 μg/ml, HT0160009 0), 0.04; in test [1] (CMS 2 μg/ml, HT0160010 0), 0.05; in test [1] (CMS 4 μg/ml, HT0160009 0), 0.04; in test [1] (CMS 4 μg/ml, HT0160010 0), 0.04. Further, the chequerboard results in test [1] (CMS 8 μg/ml, HT0160009 0) is listed as 0.04; in test [1] (CMS 8 μg/ml, HT0160010 0), 0.05; in test [1] (CMS 16 μg/ml, HT0160009 0), 0.04; in test [1] (CMS 16 μg/ml, HT0160010 0), 0.05; in test [2] (setting [3]), 0.59; in test [2] (CMS 0.016 μg/ml, HT0160009 0), 0.62. The chequerboard results in test [2] (CMS 0.031 μg/ml, HT0160009 0) is recorded as 0.64; in test [2] (CMS 0.03125 μg/ml, HT0160010 0), 0.68; in test [2] (CMS 0.0625 μg/ml, HT0160010 0), 0.61; in test [2] (CMS 0.063 μg/ml, HT0160009 0), 0.66; in test [2] (CMS 0.125 μg/ml, HT0160009 0), 0.63; in test [2] (CMS 0.125 μg/ml, HT0160010 0), 0.59. Besides, the chequerboard results is listed as 0.62 in test [2] (CMS 0.25 μg/ml, HT0160009 0); 0.61 in test [2] (CMS 0.25 μg/ml, HT0160010 0); 0.62 in test [2] (CMS 0.5 μg/ml, HT0160009 0); 0.59 in test [2] (CMS 0.5 μg/ml, HT0160010 0); 0.56 in test [2] (CMS 1 μg/ml, HT0160009 0); 0.55 in test [2] (CMS 1 μg/ml, HT0160010 0). The chequerboard results in test [2] (CMS 2 μg/ml, HT0160009 0) is listed as 0.55; in test [2] (CMS 2 μg/ml, HT0160010 0), 0.54; in test [2] (CMS 4 μg/ml, HT0160009 0) it was 0.05; in test [2] (CMS 4 μg/ml, HT0160010 0) it was 0.18; in test [2] (CMS 8 μg/ml, HT0160009 0), 0.05; in test [2] (CMS 8 μg/ml, HT0160010 0), 0.05. For the same compound, the chequerboard results in test [2] (CMS 16 μg/ml, HT0160009 0) was 0.05; in test [2] (CMS 16 μg/ml, HT0160010 0), 0.05.
